{"source": "patent US20220370416A1", "about": "“COMPOUNDS AND METHODS FOR TARGETED DEGRADATION OF KRAS” (Arvinas Operations, Inc., priority 2020, published 2022)", "type_in_all_cases": "cell-based", "key": {"[1]": {"target": "T1, KRAS^G12C (Homo sapiens, UniProt P01116, G12C)", "assay": "KRAS^G12C degradation in heterozygous H358 cells", "design": "endogenous in cells; host or cells: NCI-H358", "conditions": "heterozygous H358 cells (FIG. 4A)"}, "[2]": {"target": "T1, KRAS^G12C", "assay": "Engagement and degradation of endogenous KRAS^G12C in NCI-H2030 cells (blot quantitation)", "design": "MRTX849-VHL bifunctional compounds engage and degrade endogenous KRAS^G12C in NCI-H2030 cells; endogenous in cells; host or cells: NCI-H2030"}, "[3]": {"target": "T1, KRAS^G12C", "assay": "KRAS^G12C engagement and degradation in homozygous, MRTX849 resistant SW1573 cells", "design": "MRTX849-VHL bifunctional compounds engage and degrade endogenous KRAS^G12C in NCI-H2030 cells; endogenous in cells; host or cells: NCI-H2030, NCI-H358, MIA PaCa-2, SW1573, NCI-H23"}, "[4]": {"target": "T1, KRAS^G12C", "assay": "KRAS^G12C engagement and degradation by immunoblot in SW1573 cells", "design": "MRTX849-VHL bifunctional compounds engage and degrade endogenous KRAS^G12C in NCI-H2030 cells; endogenous in cells; host or cells: NCI-H2030, NCI-H358, MIA PaCa-2, SW1573, NCI-H23", "conditions": "for KRAS, two-way ANOVA significance vs DMSO: FIG. 11", "experimental": "NCI-H2030 (CRL-5914), MIA PaCa-2 (CRL-1420), NCI-H23 (CRL-5800), NCI-H358 (CRL-5807), and HCT-116 (CCL-247) cells were obtained from ATCC, expanded immediately, and frozen down. Vials were thawed and used within 20 passages. SW1573 cells were a gift from Arvinas and were handled in the same manner. NCI-H2030, NCI-H23, and NCI-H358 were cultured in RPMI (ATCC30-2001) supplemented with 10% FBS (Biological Industries; cat. no. S1480) and 1% Penicillin-Streptomycin (ThermoFisher; cat. no. 15140122). HCT-116 cells were maintained in high glucose DMEM (ThermoFisher; cat. no. 11965084) supplemented as above. MIA PaCa-2 cells were cultured in high glucose DMEM supplemented with 10% FBS, 2.5% horse serum (ThermoFisher; cat. no. 26050-088; lot 2109875), and 1% Penicillin-Streptomycin. SW1573 cells were maintained in DMEM/F12 Nutrient Mix with GlutaMAX supplement (ThermoFisher; cat. no. 10565018) with 10% FBS and 1% Penicillin-Streptomycin added. DPBS (ThermoFisher; cat. no. 14190250) was used to wash cells and 0.25% Trypsin-EDTA (ThermoFisher; cat. no. […]) was used to detach cells for passaging. […] The VHL ligand was generously provided by Arvinas.\nBetween 2.5×10^5 and 6.0×10^5 cells were seeded into 6-well plates (Corning; cat. no. 353046). The next day, media was removed and cells were treated with 2.5 μM LC-2 for 1, 2, 4, 8, 12, or 24 hours. […] For 24-hour time course experiments, cells were treated at the indicated times and concurrently lysed in RIPA buffer supplemented as described previously. For longer time course experiments and time courses in which cells were treated with LC-2 or LC-2 Epimer, cells were concurrently treated with either compound, then lysed by scraping in RIPA buffer at the indicated time points.\nCell lysates were clarified at 21000×g for 15 mins at 4° C. Protein levels were quantified using a 50:1 mixture of bicinchoninic acid solution (Millipore Sigma; cat. no. B9643) and 4% (w/v) copper(II) sulfate solution (Millipore Sigma; cat. no. C2284) incubated at 37° C. for 30 mins. Absorbance values at 560 nm were read on an EnVision 2101 Multilabel Reader (PerkinElmer). Proteins were separated using 26 well Criterion TGX precast 4-15% (cat. no. 5671085) or 8-16% (cat. no. 5671105) gradient midi gels. After separation, proteins were transferred to nitrocellulose or PVDF membranes at 76 V for 2 hours at 4° C. Blots were then blocked in 5% milk in tris-buffered saline with Tween-20 (TBST; 20 mM Tris, 150 mM NaCl, 0.02% Tween-20). After blocking, blots were incubated in primary antibody overnight (12-18 hours) at 4° C. or for 2 hours at room temperature with mild agitation at the manufacturer's indicated dilution in either 5% milk or 5% BSA in TBST. Blots were then washed thrice with TBST for 5 mins at room temperature. After washing, blots were incubated with 1:5,000-1:10,000 of donkey anti-rabbit (GE Life Sciences; NA934) or sheep anti-mouse (GE Life Sciences; NA931) secondary antibody diluted in 5% milk for 1 hour at room temperature with mild agitation. Blots were again washed thrice with TBST for 5 mins. Chemiluminescent signal was generated using Amersham ECL Prime Western Blotting Detection Reagant (GE Life Sciences; cat. no. RPN2232) or SuperSignal West Femto Maximum Sensitivity Substrate (ThermoFisher; cat. no. 34095). Images were obtained using a Bio-Rad ChemiDoc Imager. Fluorescent α-tubulin images were collected with the Bio-Rad ChemiDoc Imager using an Alexa488 filter. The primary antibodies used in this work include: KRAS (LSBio; clone 2C1; cat. no. LS-C175665), p-p42/44 MAPK (phospho T202/Y204) (pErk; Cell Signaling Technologies (CST); cat. no. 4370S or 9106S), p42/44 MAPK (Erk1/2; CST; cat. no. 4695S), alpha-tubulin (CST; 2144S), and alpha-tubulin w/AlexaFluor488 (Millipore; cat. no. 16-232).\nBand intensities were quantified using BioRad's Image Lab Software. […]"}, "[5]": {"conditions": "SW1573 cells, 72 hour time course (FIG. 8)"}, "[6]": {"conditions": "SW1573 cells, time course (FIG. 6B)"}}, "data": [{"smiles": "C=C(F)C(=O)N1CCN(c2nc(OC[C@@H]3CCCN3CCCOCCC(=O)N[C@H](C(=O)N3C[C@@H](O)C[C@H]3C(=O)NCc3ccc(-c4scnc4C)cc3)C(C)(C)C)nc3c2CCN(c2cccc4cccc(Cl)c24)C3)C[C@@H]1CC#N", "note": "[LC-2 Epimer, (2S,4S)-1-((S)-2-(3-(3-((S)-2-(((7-(8-chloronaphthalen-1-yl)-4-((S)-3-(cyanomethyl)-4-(2-fluoroacryloyl)piperazin-1-yl)-5,6,7,8-tetrahydropyrido[3,4-d]pyrimidin-2-yl)oxy)methyl)pyrrolidin-1-yl)propoxy)propanamido)-3,3-dimethylbutanoyl)-4-hydroxy-N-(4-(4-methylthiazol-5-yl)benzyl)pyrrolidine-2-carboxamide]", "values": [{"measurement": "induction of KRAS^G12C degradation", "setting": "[1]", "result": "not"}, {"measurement": "induction of KRAS^G12C degradation", "setting": "[2]; 2.5 μM (FIG. 5A)", "result": "does not induce KRAS^G12C degradation"}, {"measurement": "change of KRAS^G12C level over 72 hours", "setting": "[3]; [5]", "result": "No change is observed"}, {"measurement": "time to near maximal engagement", "setting": "[4]; SW1573, 2.5 μM", "result": 1, "unit": "h"}, {"measurement": "KRAS^G12C engagement and protein levels", "setting": "[4]; SW1573, longer time course (FIG. 8)", "result": "fully engaged KRAS^G12C in SW1573 cells, but did not decrease protein levels"}]}, {"smiles": "C=C(F)C(=O)N1CCN(c2nc(OC[C@@H]3CCCN3CCCOCCC(=O)N[C@H](C(=O)N3C[C@H](O)C[C@H]3C(=O)NCc3ccc(-c4scnc4C)cc3)C(C)(C)C)nc3c2CCN(c2cccc4cccc(Cl)c24)C3)C[C@@H]1CC#N", "note": "[LC-2, (2S,4R)-1-((S)-2-(3-(3-((S)-2-(((7-(8-chloronaphthalen-1-yl)-4-((S)-3-(cyanomethyl)-4-(2-fluoroacryloyl)piperazin-1-yl)-5,6,7,8-tetrahydropyrido[3,4-d]pyrimidin-2-yl)oxy)methyl)pyrrolidin-1-yl)propoxy)propanamido)-3,3-dimethylbutanoyl)-4-hydroxy-N-(4-(4-methylthiazol-5-yl)benzyl)pyrrolidine-2-carboxamide]", "values": [{"measurement": "induction of KRAS^G12C degradation", "setting": "[1]", "result": "induces KRAS^G12C degradation"}, {"measurement": "rescue of induced KRAS^G12C degradation (mechanism)", "setting": "[2]; VHL ligand competition, epoxomicin, MLN924 (FIG. 5A)", "result": "rescued by VHL ligand competition, proteasome inhibition with epoxomicin (Epox), and neddylation inhibition with MLN924 (MLN)"}, {"measurement": "degradation of KRAS^G12C", "setting": "[2]; dose response (FIG. 2C)", "result": "degrades KRAS^G12C in a dose dependent manner"}, {"measurement": "maximal KRAS^G12C degradation maintained up to", "setting": "[2]; time course (FIG. 6A)", "result": 24, "unit": "h"}, {"measurement": "time to maximal KRAS^G12C degradation", "setting": "[2]; time course (FIG. 6A)", "result": "≤ 8", "unit": "h"}, {"measurement": "KRAS^G12C degradation maintained for", "setting": "[3]; [5]", "result": 72, "unit": "h"}, {"measurement": "time to onset of KRAS^G12C degradation", "setting": "[3]; [5]", "result": "≤ 6", "unit": "h"}, {"measurement": "maximal KRAS^G12C degradation maintained up to", "setting": "[3]; [6]", "result": 24, "unit": "h"}, {"measurement": "time to maximal KRAS^G12C degradation", "setting": "[3]; [6]", "result": 12, "unit": "h"}, {"measurement": "induction of KRAS^G12C degradation", "setting": "[3]; homozygous, MRTX849 resistant SW1573 cells (FIG. 4C)", "result": "induces KRAS^G12C degradation"}, {"measurement": "duration of KRAS degradation", "setting": "[4]; SW1573, 2.5 μM", "result": "sustained up to 72 hours"}, {"measurement": "time to maximal KRAS degradation", "setting": "[4]; SW1573, 2.5 μM, 6, 24, 48, 72 hours", "result": "≤ 24", "unit": "h"}, {"measurement": "KRAS, two-way ANOVA significance vs DMSO", "setting": "[4]; SW1573, 2.5 μM, 1 hour", "result": "N.S."}, {"measurement": "KRAS, two-way ANOVA significance vs DMSO", "setting": "[4]; SW1573, 2.5 μM, 2 hours", "result": "N.S."}, {"measurement": "KRAS, two-way ANOVA significance vs DMSO", "setting": "[4]; SW1573, 2.5 μM, 4 hours", "result": "N.S."}, {"measurement": "KRAS, two-way ANOVA significance vs DMSO", "setting": "[4]; SW1573, 2.5 μM, 8 hours", "result": "** (** p < 0.01)"}, {"measurement": "KRAS, two-way ANOVA significance vs DMSO", "setting": "[4]; SW1573, 2.5 μM, 12 hours", "result": "** (** p < 0.01)"}, {"measurement": "time to maximal degradation", "setting": "[4]; SW1573, 2.5 μM, 24 hour time course", "result": 12, "unit": "h"}, {"measurement": "KRAS, two-way ANOVA significance vs DMSO", "setting": "[4]; SW1573, 2.5 μM, 24 hours", "result": "*** (*** p < 0.005)"}, {"measurement": "DC50", "setting": "[4]; SW1573, homozygous KRAS^G12C", "result": "760 ± 300", "unit": "nM"}, {"measurement": "Dmax", "setting": "[4]; SW1573, homozygous KRAS^G12C", "result": "> 85", "unit": "%"}]}]}
